Experiment [1] concerns HCT 116 wild-type MTAP cells. Kind of experiment: Inhibition of proliferation of HCT116 wild-type MTAP cells (CellTiter-Glo, 6 days). Conditions: Homo sapiens, HCT-116, 144 h. The format is cell-based. The procedure: (§1) 1. HCT 116 MTAP-knockout cells and HCT 116 wild-type MTAP cells were plated in 96-well flat-bottom plates and cultured overnight at 37° C. and […] in McCoy's 5A medium containing 10% fetal bovine serum+1% penicillin-streptomycin.
(§2) 2. The next day, compounds were each dissolved in DMSO, diluted successively with DMSO and medium and then transferred to cell plates; the final concentration of each compound was 10 μM, 4-fold dilution was performed to obtain 9 concentration points, and a DMSO control was provided.
(§3) 3. Cells not treated with compound were subjected to CellTiter-Glo Luminescent Cell Viability Assay (Promega) to detect the cell viability, and reference was made to the kit instructions for the operation; the plates were then placed on an EnVision Multilabel Reader to detect luminescence signals.
(§4) 4. Meanwhile, the cell plates containing cells treated with compounds were cultured continuously at 37° C. and […] CO2 for 6 days.
(§5) 5. Then, the cell viability was also detected by CellTiter-Glo.
(§6) 6. Finally, dose response curves were plotted using the four parameter dose response curve module of GraphPad Prism v 9.2.0 software and proliferation inhibition IC50 (unit: nM) was calculated.
A general note: In ATP-based viability assays light output follows the ATP content of the culture.

Experiment [2] relates to HCT 116 MTAP-knockout cells. Kind of experiment: Inhibition of proliferation of HCT116 MTAP-knockout cells (CellTiter-Glo, 6 days). The format is cell-based, human. The conditions noted are these: for IC50: Homo sapiens, HCT-116, 144 h, proliferation inhibition, HCT116 MTAP-knockout, 6 days, CellTiter-Glo; for Selectivity: IC50 HCT116 wild-type cells / IC50 HCT116 MTAP-knockout cells. The procedure:
as §1, §2, §3, §4, §5, §6

Usually IC50 stands for the concentration that gives 50% inhibition.

`C[C@H](c1ncccn1)N(Cc1ccc(C(F)(F)F)cn1)C(=O)c1ccc2nc(N)c3c(cnn3C)c2c1` [Comparative compound 1, reference compound]: the IC50 in experiment [1] was found to be 42.7 nM; in experiment [2] it was 16.3 nM. The Selectivity in experiment [2] amounted to 2.6.
For `CC(c1ncccn1)N(Cc1ccc(C(F)(F)F)cn1)C(=O)c1ccc2nc(N)c3[nH]ncc3c2c1` (stereo not drawn) [Comparative compound 2, reference compound] the same measures were 78.3 nM, 35.5 nM and 2.2.
The compound `CC(C1CC1)N(Cc1ccc(C(F)(F)F)cn1)C(=O)c1ccc2nc(N)c3cnn(C)c3c2c1` (stereo not drawn) [Comparative compound 3, reference compound] showed a 50% inhibitory concentration (IC50) in experiment [1] of 96 nM. In experiment [2], this compound yielded a 50% inhibitory concentration (IC50) of 6 nM and a Selectivity of 16.
For `C[C@H](c1ncccn1)N(Cc1ccc(C(F)(F)F)cn1)C(=O)c1ccc2nc(N)c3cnn(C)c3c2c1` [Comparative compound 4, reference compound] the same measures were 85 nM, 6 nM and 14.2.
In turn, `Cc1ncc2c(N)nc3ccc(C(=O)N(Cc4ccc(C(F)(F)F)cn4)[C@H](C)c4ncccn4)cc3n12` [Example 1, (R)-4-amino-1-methyl-N-(1-(pyrimidin-2-yl)ethyl)-N-((5-(trifluoromethyl)pyridin-2-yl)methyl)imidazo[1,5-a]quinoxaline-8-carboxamide] had an IC50 in experiment [1] of 1500 nM. For the same compound, in experiment [2], the IC50 was 29 nM and the Selectivity is given as 51.7.
For `Cc1ncc2c(N)nc3cc(F)c(C(=O)N(c4cnn(C)c4)[C@@H]4COc5cc(C(F)(F)F)ccc54)cc3n12` [Example 2, (S)-4-amino-7-fluoro-1-methyl-N-(1-methyl-1H-pyrazol-4-yl)-N-(6-(trifluoromethyl)-2,3-dihydrobenzofuran-3-yl)imidazo[1,5-a]quinoxaline-8-carboxamide] the same measures were 207 nM, 5 nM and 41.4.
For `C[C@H](c1ncccn1)N(Cc1ccc(C(F)(F)F)cn1)C(=O)c1ccc2nc(N)c3cncn3c2c1` [Example 3, (R)-4-amino-N-(1-(pyrimidin-2-yl)ethyl)-N-((5-(trifluoromethyl)pyridin-2-yl)methyl)imidazo[1,5-a]quinoxaline-8-carboxamide] the same measures were 166 nM, 8 nM and 20.8.
Regarding `C[C@@H]1COC[C@H](c2ccc(C(F)(F)F)cn2)N1C(=O)c1ccc2nc(N)c3cncn3c2c1` [Example 14a, (4-aminoimidazo[1,5-a]quinoxalin-8-yl)((3R,5S)-3-methyl-5-(5-(trifluoromethyl)pyridin-2-yl)morpholino)methanone], inhibition in experiment [1] was half-maximal at 2060 nM (IC50). In experiment [2], inhibition was half-maximal at 55 nM (IC50) and the Selectivity worked out at 37.4.
The corresponding values for `Nc1nc2ccc(C(=O)N(CC3CC3)C3CCc4cc(C(F)(F)F)ccc43)cc2n2cncc12` (stereo not drawn) [Example 22, 4-amino-N-(cyclopropylmethyl)-N-(5-(trifluoromethyl)-2,3-dihydro-1H-inden-1-yl)imidazo[1,5-a]quinoxaline-8-carboxamide] are 5480 nM, 154 nM and 35.6.
As for `Cn1cc(N(C(=O)c2ccc3nc(N)c4cncn4c3c2)C2COc3cc(C(F)(F)F)ccc32)cn1` (stereo not drawn) [Example 30, 4-amino-N-(1-methyl-1H-pyrazol-4-yl)-N-(6-(trifluoromethyl)-2,3-dihydrobenzofuran-3-yl)imidazo[1,5-a]quinoxaline-8-carboxamide], the figures for the IC50 in experiment [1] and in experiment [2] were 725 nM and 12 nM, respectively. Besides, the Selectivity in experiment [2] is 60.4.
`Cn1cc(N(C(=O)c2ccc3nc(N)c4cncn4c3c2)[C@@H]2COc3cc(C(F)(F)F)ccc32)cn1` [Example 30a, (S)-4-amino-N-(1-methyl-1H-pyrazol-4-yl)-N-(6-(trifluoromethyl)-2,3-dihydrobenzofuran-3-yl)imidazo[1,5-a]quinoxaline-8-carboxamide]: the IC50 came to 381 nM in experiment [1] and 4 nM in experiment [2]. In experiment [2], this compound yielded a Selectivity of 95.3.
Compound `Nc1nc2ccc(C(=O)N(CC3CC3)[C@@H]3CCc4nc(C(F)(F)F)ccc43)cc2n2cncc12` [Example 34a, (R)-4-amino-N-(cyclopropylmethyl)-N-(2-(trifluoromethyl)-6,7-dihydro-5H-cyclopenta[b]pyridin-5-yl)imidazo[1,5-a]quinoxaline-8-carboxamide] came in with an IC50 in experiment [2] of 225 nM.
Same read-out and setting: next, `Nc1nc2ccc(C(=O)N(CC3CC3)[C@H]3CCc4nc(C(F)(F)F)ccc43)cc2n2cncc12` [Example 34b, (S)-4-amino-N-(cyclopropylmethyl)-N-(2-(trifluoromethyl)-6,7-dihydro-5H-cyclopenta[b]pyridin-5-yl)imidazo[1,5-a]quinoxaline-8-carboxamide]: 1820 nM.
Regarding `Nc1nc2ccc(C(=O)N(Cc3ccc(C(F)(F)F)cn3)CC3CC3)cc2n2cncc12` [Example 144, 4-amino-N-(cyclopropylmethyl)-N-((5-(trifluoromethyl)pyridin-2-yl)methyl)imidazo[1,5-a]quinoxaline-8-carboxamide], the results for the IC50 in experiment [1] and in experiment [2] were 2060 nM and 22 nM, respectively. The Selectivity in experiment [2] turned out to be 93.5.
Consider `CC(C1CC1)N(Cc1ccc(C(F)(F)F)cn1)C(=O)c1ccc2nc(N)c3cncn3c2c1` (stereo not drawn) [Example 145, 4-amino-N-(1-cyclopropylethyl)-N-((5-(trifluoromethyl)pyridin-2-yl)methyl)imidazo[1,5-a]quinoxaline-8-carboxamide], for which the figures for the IC50 in experiment [1] and in experiment [2] were 1080 nM and 24 nM, respectively. In addition, the Selectivity in experiment [2] is given as 44.8.
Compound `CN(Cc1ccc(C(F)(F)F)cn1)C(=O)c1ccc2nc(N)c3cncn3c2c1` [Example 146, 4-amino-N-methyl-N-((5-(trifluoromethyl)pyridin-2-yl)methyl)imidazo[1,5-a]quinoxaline-8-carboxamide] had an IC50 in experiment [1] above 10000 nM. In experiment [2], this compound registered an IC50 of 224 nM and a Selectivity above 44.6.
As to `Nc1nc2ccc(C(=O)N(Cc3ccc(C(F)(F)F)cn3)C3CCC3)cc2n2cncc12` [Example 147, 4-amino-N-cyclobutyl-N-((5-(trifluoromethyl)pyridin-2-yl)methyl)imidazo[1,5-a]quinoxaline-8-carboxamide], the half-maximal inhibitory concentration (IC50) was found to be 4990 nM in experiment [1] and 115 nM in experiment [2]. The compound further gave a Selectivity in experiment [2] of 43.4.
The corresponding values for `Nc1nc2ccc(C(=O)N(Cc3ccc(C(F)(F)F)cn3)CC(F)(F)F)cc2n2cncc12` [Example 148, 4-amino-N-(2,2,2-trifluoroethyl)-N-((5-(trifluoromethyl)pyridin-2-yl)methyl)imidazo[1,5-a]quinoxaline-8-carboxamide] are above 10000 nM, 202 nM and above 49.5.
The compound `Nc1nc2ccc(C(=O)N(Cc3ccc(OC(F)(F)F)cn3)CC3CC3)cc2n2cncc12` [Example 158, 4-amino-N-(cyclopropylmethyl)-N-((5-(trifluoromethoxy)pyridin-2-yl)methyl)imidazo[1,5-a]quinoxaline-8-carboxamide] came in with an IC50 in experiment [2] of 68 nM.
Still for that read-out and setting: as for `Nc1nc2ccc(C(=O)N(CC3CC3)[C@H]3COc4nc(C(F)(F)F)ccc43)cc2n2cncc12` [Example 181b, (R)-4-amino-N-(cyclopropylmethyl)-N-(6-(trifluoromethyl)-2,3-dihydrofuro[2,3-b]pyridin-3-yl)imidazo[1,5-a]quinoxaline-8-carboxamide], the figure is 3130 nM.
The same measure, in the same setting: next, `CC(c1ccc(C(F)(F)F)cn1)N(CC1CC1)C(=O)c1ccc2nc(N)c3cncn3c2c1` (stereo not drawn) [Example 203, 4-amino-N-(cyclopropylmethyl)-N-(1-(5-(trifluoromethyl)pyridin-2-yl)ethyl)imidazo[1,5-a]quinoxaline-8-carboxamide]: 155 nM.
The same measure, in the same setting: as for `CN(C(=O)c1ccc2nc(N)c3cncn3c2c1)C1COc2nc(C(F)(F)F)ccc21` (stereo not drawn) [Example 204, 4-amino-N-methyl-N-(6-(trifluoromethyl)-2,3-dihydrofuro[2,3-b]pyridin-3-yl)imidazo[1,5-a]quinoxaline-8-carboxamide], the figure is 238 nM.
As to `Cn1cc(N(C(=O)c2ccc3nc(N)c4cncn4c3c2)[C@@H]2COc3nc(C(F)(F)F)ccc32)cn1` [Example 205a, (S)-4-amino-N-(1-methyl-1H-pyrazol-4-yl)-N-(6-(trifluoromethyl)-2,3-dihydrofuro[2,3-b]pyridin-3-yl)imidazo[1,5-a]quinoxaline-8-carboxamide], in experiment [2], the IC50 came to 313 nM.
The same measure, in the same setting: as for `COCCN(Cc1ccc(C(F)(F)F)cn1)C(=O)c1ccc2nc(N)c3cnc(C)n3c2c1` [Example 224, 4-amino-N-(2-methoxyethyl)-1-methyl-N-((5-(trifluoromethyl)pyridin-2-yl)methyl)imidazo[1,5-a]quinoxaline-8-carboxamide], the figure is 323 nM; as for `CN(Cc1ccc(C(F)(F)F)cn1)C(=O)c1cc2c(cc1F)nc(N)c1cccn12` [Example 232, 4-amino-7-fluoro-N-methyl-N-((5-(trifluoromethyl)pyridin-2-yl)methyl)pyrrolo[1,2-a]quinoxaline-8-carboxamide], 2240 nM.

The record behind these values is patent US20250382296A1, “NITROGEN-CONTAINING FUSED THREE RING PRMT5 INHIBITOR, AND PREPARATION METHOD THEREFOR AND PHARMACEUTICAL USE THEREOF” (Abbisko Therapeutics Co., Ltd., priority 2022, published 2025).
